Columns and labels:
Assay in all cases: two-electrode voltage clamp, Xenopus oocytes
AChRB1 (O. vulgaris) = system: T1, AChRB1 (O. vulgaris); type: cell-based, Octopus vulgaris; details: agonist; ND96, -60 mV
T1 construct: full-length cDNA cloned from 1-dph O. vulgaris paralarvae, KSM vector, Xenopus oocytes; expressed alone (homomeric); LOC number follows O. sinensis annotation

DopC1 from Daphnia magna = molecular target: T2, DopC1 from Daphnia magna (Daphnia magna, UniProt A0A0P5YVQ3); type: cell-based; details: agonist; ND96, -60 mV
T2 construct: cDNA cloned from adult D. magna RNA, KSM vector, Xenopus oocytes; homomeric; LOC116927457 assigned to DopC1 by printed order only (DopC2 = LOC116923538)
T2 sequence (A0A0P5YVQ3 24-503): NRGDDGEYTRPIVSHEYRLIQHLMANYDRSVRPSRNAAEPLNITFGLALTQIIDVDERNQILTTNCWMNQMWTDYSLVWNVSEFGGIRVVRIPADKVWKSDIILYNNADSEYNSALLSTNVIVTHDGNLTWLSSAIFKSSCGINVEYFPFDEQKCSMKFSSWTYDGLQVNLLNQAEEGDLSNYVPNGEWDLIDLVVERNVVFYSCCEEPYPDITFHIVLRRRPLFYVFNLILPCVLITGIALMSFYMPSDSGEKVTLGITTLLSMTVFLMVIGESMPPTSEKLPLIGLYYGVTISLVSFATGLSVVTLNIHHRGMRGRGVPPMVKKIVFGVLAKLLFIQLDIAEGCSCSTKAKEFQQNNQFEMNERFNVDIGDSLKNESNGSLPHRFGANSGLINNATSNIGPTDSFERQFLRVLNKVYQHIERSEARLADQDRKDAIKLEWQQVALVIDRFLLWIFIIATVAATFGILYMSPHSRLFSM

DopC2 from Daphnia magna = molecular target: T3, DopC2 from Daphnia magna (Daphnia magna, UniProt A0A0P6GTI1); type: cell-based; details: agonist; ND96, -60 mV
T3 construct: gene APZ42_017815; cDNA cloned from adult D. magna RNA, KSM vector, Xenopus oocytes; homomeric; LOC116923538 assigned to DopC2 by printed order only (DopC1 = LOC116927457)
T3 sequence (A0A0P6GTI1 36-620): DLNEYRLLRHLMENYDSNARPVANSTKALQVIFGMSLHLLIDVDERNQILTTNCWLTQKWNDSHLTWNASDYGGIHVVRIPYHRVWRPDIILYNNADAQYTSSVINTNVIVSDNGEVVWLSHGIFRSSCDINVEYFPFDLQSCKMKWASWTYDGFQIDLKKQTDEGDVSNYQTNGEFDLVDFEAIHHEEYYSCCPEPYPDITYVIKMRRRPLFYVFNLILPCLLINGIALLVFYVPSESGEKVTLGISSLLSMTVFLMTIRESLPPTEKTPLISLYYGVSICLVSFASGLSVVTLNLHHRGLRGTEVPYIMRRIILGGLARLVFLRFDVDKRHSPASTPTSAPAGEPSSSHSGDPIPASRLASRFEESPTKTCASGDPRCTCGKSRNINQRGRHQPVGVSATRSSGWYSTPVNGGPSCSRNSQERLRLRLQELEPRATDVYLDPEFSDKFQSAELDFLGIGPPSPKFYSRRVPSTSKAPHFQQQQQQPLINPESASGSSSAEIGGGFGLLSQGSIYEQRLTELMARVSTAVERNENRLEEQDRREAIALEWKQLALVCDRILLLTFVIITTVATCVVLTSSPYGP

[1] = molecular target: T4, DopC1 from Aplysia californica (Aplysia californica, UniProt A0ABM0GHJ1); type: cell-based
T4 construct: gene LOC101853763; full-length synthetic cDNA (GeneArt), KSM vector, Xenopus oocytes; homomeric channel
T4 sequence (A0ABM0GHJ1 25-518): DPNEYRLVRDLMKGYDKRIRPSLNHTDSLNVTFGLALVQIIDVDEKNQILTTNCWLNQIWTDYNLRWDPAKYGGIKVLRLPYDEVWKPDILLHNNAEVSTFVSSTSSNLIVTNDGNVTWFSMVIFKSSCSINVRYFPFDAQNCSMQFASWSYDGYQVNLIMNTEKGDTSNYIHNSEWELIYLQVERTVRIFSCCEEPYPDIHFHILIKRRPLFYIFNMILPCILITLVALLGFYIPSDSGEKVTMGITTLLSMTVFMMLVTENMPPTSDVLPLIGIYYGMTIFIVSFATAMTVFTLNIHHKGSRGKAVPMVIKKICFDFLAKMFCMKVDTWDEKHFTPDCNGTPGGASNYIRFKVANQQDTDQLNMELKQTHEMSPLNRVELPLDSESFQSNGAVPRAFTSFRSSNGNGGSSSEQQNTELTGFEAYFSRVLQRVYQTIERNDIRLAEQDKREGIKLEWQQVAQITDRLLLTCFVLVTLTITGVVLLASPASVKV

[2] = molecular target: T5, DopC1 from Apis mellifera (Apis mellifera, UniProt A0A7M7R6H2); type: cell-based
T5 construct: gene LOC408525; full-length synthetic cDNA (GeneArt), KSM vector, Xenopus oocytes; homomeric channel
T5 sequence (A0A7M7R6H2 91-549): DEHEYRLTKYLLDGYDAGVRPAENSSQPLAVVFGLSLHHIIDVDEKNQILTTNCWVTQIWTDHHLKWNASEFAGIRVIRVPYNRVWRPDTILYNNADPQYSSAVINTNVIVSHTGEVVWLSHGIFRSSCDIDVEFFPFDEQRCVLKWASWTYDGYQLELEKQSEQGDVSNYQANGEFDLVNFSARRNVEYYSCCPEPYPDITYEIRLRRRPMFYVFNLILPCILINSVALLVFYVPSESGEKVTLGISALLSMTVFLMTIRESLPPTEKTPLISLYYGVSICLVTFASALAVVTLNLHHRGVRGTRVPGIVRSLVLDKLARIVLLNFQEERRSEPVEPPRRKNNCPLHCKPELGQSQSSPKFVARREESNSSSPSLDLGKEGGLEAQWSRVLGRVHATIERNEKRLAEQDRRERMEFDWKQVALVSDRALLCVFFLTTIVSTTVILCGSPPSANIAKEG

DopC1 (O. vulgaris) [3] = system: T6, DopC1 (O. vulgaris); type: cell-based, Octopus vulgaris; details: agonist; ND96, -60 mV
T6 construct: full-length cDNA cloned from 1-dph O. vulgaris paralarvae, KSM vector, Xenopus oocytes; homomeric cys-loop channel; LOC number follows O. sinensis annotation

DopC1 (O. vulgaris) [4] = system: T6, DopC1 (O. vulgaris); type: cell-based, Octopus vulgaris; details: antagonist; against 10 µM dopamine (~EC50); ND96, -60 mV

Compound: CC(=O)OCC[N+](C)(C)C [acetylcholine]
- EC50 (AChRB1 (O. vulgaris)): 1.9 µM

Compound: NCCc1ccc(O)c(O)c1 [dopamine]
- EC50 (DopC1 from Daphnia magna): 50 µM
- EC50 (DopC2 from Daphnia magna): 4.6 µM
- EC50 [1]: 3.5 µM
- EC50 [2]: 1.7 µM
- EC50 (DopC1 (O. vulgaris) [3]): 7.6 µM

Compound: NCC(O)c1ccc(O)c(O)c1 (racemic) [norepinephrine]
- EC50 (DopC1 from Daphnia magna): 82 µM
- EC50 (DopC2 from Daphnia magna): 36 µM
- EC50 [1]: 8.4 µM
- EC50 [2]: 6.3 µM
- EC50 (DopC1 (O. vulgaris) [3]): 55 µM

Compound: CN1CCc2cccc3c2[C@H]1Cc1ccc(O)c(O)c1-3 [apomorphine]
- IC50 (DopC1 (O. vulgaris) [4]): 7 µM

Compound: CNCC(O)c1ccc(O)c(O)c1 (racemic) [epinephrine]
- EC50 (DopC1 (O. vulgaris) [3]): 35 µM

Compound: NCC(O)c1ccc(O)cc1 (racemic) [octopamine]
- EC50 (DopC1 (O. vulgaris) [3]): 18000 µM

Compound: C[N+](C)(C)CCO [choline]
- EC50 (AChRB1 (O. vulgaris)): 98 µM

Compound: NCCc1c[nH]c2ccc(O)cc12 [serotonin]
- EC50 (DopC1 (O. vulgaris) [3]): 73 µM

Compound: NCCc1ccc(O)cc1 [tyramine]
- EC50 (DopC1 (O. vulgaris) [3]): 180 µM
